Assay results taken from patent publication US20110207723A1, “NOVEL FUSED AMINODIHYDROTHIAZINE DERIVATIVE” (EISAI R&D MANAGEMENT CO., LTD., priority 2008, published 2011).

Test system: Aβ42 production
Assay: Quantification of Aβ peptide in culture of neurons from rat fetus brain (Aβ42 ELISA)
Type: cell-based
Conditions: Neuron, 72 h, rat primary neuronal culture (embryonic day 18 Wistar rat cerebral cortex), medium collected three days after addition of compound, read-out: Aβ42 production reducing effect IC50
Description: Quantification of Aβ Peptide in Culture of Neurons from Rat Fetus Brain
Primary neuronal cultures were prepared from the cerebral cortex of embryonic day 18 Wistar rats (Charles River Japan, Yokohama, Japan). Specifically, the embryos were aseptically removed from pregnant rats under ether anesthesia. The brain was isolated from the embryo and immersed in an ice-cold L-15 medium (such as Invitrogen Corp. Cat #11415-064, Carlsbad, Calif., USA, or SIGMA L1518). The cerebral cortex was collected from the isolated brain under a stereoscopic microscope. The cerebral cortex fragments collected were enzymatically treated in an enzyme solution containing 0.25% trypsin (Invitrogen Corp. Cat #15050-065, Carlsbad, Calif., USA) and 0.01% DNase (Sigma D5025, St. Louis, Mo., USA) at 37° C. for 30 minutes to disperse the cells. Here, the enzymatic reaction was stopped by adding inactivated horse serum to the solution. The enzymatically treated solution was centrifuged at 1,500 rpm for five minutes to remove the supernatant. 5 to 10 ml of a medium was added to the resulting cell mass. Neurobasal medium (Invitrogen Corp. Cat #21103-049, Carlsbad, Calif., USA) supplemented with 2% B27 supplement (Invitrogen Corp. Cat #17504-044, Carlsbad, Calif., USA), 25 μM 2-mercaptoethanol (2-ME, WAKO Cat #139-06861, Osaka, Japan), 0.5 mM L-glutamine (Invitrogen Corp. Cat #25030-081, Carlsbad, Calif., USA), and Antibiotics-Antimycotics (Invitrogen Corp. Cat #15240-062, Carlsbad, Calif., USA) was used as the medium (Neurobasal/B27/2-ME). However, the above Neurobasal medium not supplemented with 2-ME (Neurobasal/B27) was used for the assay. The cells were redispersed by mild pipetting of the cell mass to which the medium was added. The cell dispersion was filtered through a 40-μm nylon mesh (Cell Strainer, Cat #35-2340, Becton Dickinson Labware, Franklin Lakes, N.J., USA) to remove the remaining cell mass, and thus a neuronal cell suspension was obtained. The neuronal cell suspension was diluted with the medium and then plated in a volume of 100 μl/well at an initial cell density of 5×10^5 cells/cm^2 in a 96-well polystyrene culture plate pre-coated with poly-L or D-lysine (Falcon Cat #35-3075, Becton Dickinson Labware, Franklin Lakes, N.J., USA coated with poly-L-lysine using the method shown below, or BIOCOAT™ cell environments Poly-D-lysine cell ware 96-well plate, Cat #35-6461, Becton Dickinson Labware, Franklin Lakes, N.J., USA). Poly-L-lysine coating was carried out as follows. 100 μg/ml of a poly-L-lysine (SIGMA P2636, St. Louis, Mo., USA) solution was aseptically prepared with a 0.15 M borate buffer (pH 8.5). […] of the solution was added to the 96-well polystyrene culture plate and incubated at room temperature for one or more hours or at 4° C. overnight or longer. Thereafter, the coated 96-well polystyrene culture plate was washed with sterile water four or more times, and then dried or rinsed with, for example, sterile PBS or medium, and used for cell plating. The plated cells were cultured in the culture plate at 37° C. in 5% CO2-95% air for one day. Then, the total amount of the medium was replaced with a fresh Neurobasal/B27/2-ME medium, and then the cells were cultured for further three days.
The drug was added to the culture plate on Day 4 of culture as follows. The total amount of the medium was removed from the wells, and 180 μl/well of Neurobasal medium not containing 2-ME and containing 2% B-27 (Neurobasal/B27) was added thereto. A solution of the test compound in dimethyl sulfoxide (hereinafter abbreviated as DMSO) was diluted with Neurobasal/B27 to a concentration 10-fold higher than the final concentration. 20 μl/well of the dilution was added to and sufficiently mixed with the medium. The final DMSO concentration was 1% or less. Only DMSO was added to the control group.
The cells were cultured for three days after addition of the compound, and the total amount of the medium was collected. […]

SMILES: NC1=N[C@@]2(c3cc(-c4cccnc4F)ccc3F)CO[C@@H](CF)C[C@H]2CS1 [Example 60, (4aR,6R,8aS)-8a-[2-fluoro-5-(2-fluoropyridin-3-yl)phenyl]-6-fluoromethyl-4,4a,5,6,8,8a-hexahydro-7-oxa-3-thia-1-azanaphthalen-2-ylamine]
- IC50: 32 nM

SMILES: N#Cc1ccc(C(=O)Nc2ccc(OC(F)(F)F)c([C@]34COCC[C@H]3CSC(N)=N4)c2)nc1 (single isomer, unassigned) [Example 4, N-[3-((4aR*,8aS*)-2-amino-4,4,5,6-tetrahydro-7-oxa-3-thia-1-azanaphthalen-8a-yl)-4-trifluoromethoxyphenyl]-5-cyanopyridine-2-carboxamide]
- IC50: 11 nM

SMILES: NC1=N[C@@]2(c3cc(NC(=O)c4ncc(Cl)cc4Cl)ccc3F)COCC[C@H]2CS1 (single isomer, unassigned) [Example 52, N-[3-((4aR*,8aS*)-2-amino-4,4a,5,6-tetrahydro-7-oxa-3-thia-1-azanaphthalen-8a-yl)-4-fluorophenyl]-3,5-dichloropyridine-2-carboxamide]
- IC50: 2 nM

SMILES: NC1=N[C@@]2(c3cc(NC(=O)c4cnc(OCF)cn4)ccc3F)CO[C@@H](C(F)(F)F)C[C@H]2CS1 (relative stereo) [Example 39, N-[3-((4aR*,6R*,8aS*)-2-amino-6-trifluoromethyl-4,4a,5,6-tetrahydro-7-oxa-3-thia-1-azanaphthalen-8a-yl)-4-fluorophenyl]-5-fluoromethoxypyrazine-2-carboxamide]
- IC50: 1 nM

SMILES: N#Cc1ccc(C(=O)Nc2ccc(F)c([C@]34CO[C@@H](C(F)(F)F)C[C@H]3CSC(N)=N4)c2)nc1 (relative stereo) [Example 35, N-[3-((4aR*,6R*,8aS*)-2-amino-6-trifluoromethyl-4,4a,5,6-tetrahydro-7-oxa-3-thia-1-azanaphthalen-8a-yl)-4-fluorophenyl]-5-cyanopyridine-2-carboxamide]
- IC50: 2.1 nM

SMILES: N#Cc1ccc(C(=O)Nc2ccc(F)c([C@]34CO[C@@H](CO)C[C@H]3CSC(N)=N4)c2)nc1 [Example 34, N-[3-((4aR,6R,8aS)-2-amino-6-hydroxymethyl-4,4a,5,6-tetrahydro-7-oxa-3-thia-1-azanaphthalen-8a-yl)-4-fluorophenyl]-5-cyanopyridine-2-carboxamide]
- IC50: 2 nM

SMILES: NC1=N[C@@]2(c3cc(NC(=O)c4ccccn4)ccc3F)CO[C@@H](C(F)(F)F)C[C@H]2CS1 (relative stereo) [Example 38, N-[3-((4aR*,6R*,8aS*)-2-amino-6-trifluoromethyl-4,4a,5,6-tetrahydro-7-oxa-3-thia-1-azanaphthalen-8a-yl)-4-fluorophenyl]-pyridine-2-carboxamide]
- IC50: 3 nM

SMILES: C[C@H]1C[C@H]2CSC(N)=N[C@@]2(c2cc(NC(=O)c3cnc(OC(F)F)cn3)ccc2F)CO1 (relative stereo) [Example 9, N-[3-((4aR*,6S*,8aS*)-2-amino-6-methyl-4,4a,5,6-tetrahydro-7-oxa-3-thia-1-azanaphthalen-8a-yl)-4-fluorophenyl]-5-difluoromethoxypyrazine-2-carboxamide]
- IC50: 0.6 nM

SMILES: COC[C@H]1C[C@H]2CSC(N)=N[C@@]2(c2cc(NC(=O)c3cnc(OC(F)F)cn3)ccc2F)CO1 (relative stereo) [Example 15, N-[3-((4aR*,6R*,8aS*)-2-amino-6-methoxymethyl-4,4a,5,6-tetrahydro-7-oxa-3-thia-1-azanaphthalen-8a-yl)-4-fluorophenyl]-5-difluoromethoxypyrazine-2-carboxamide]
- IC50: 0.4 nM

SMILES: NC1=N[C@@]2(c3cc(NC(=O)c4cnc(OC(F)F)cn4)ccc3F)CO[C@@H](C(F)(F)F)C[C@H]2CS1 (relative stereo) [Example 36, N-[3-((4aR*,6R*,8aS*)-2-amino-6-trifluoromethyl-4,4a,5,6-tetrahydro-7-oxa-3-thia-1-azanaphthalen-8a-yl)-4-fluorophenyl]-5-difluoromethoxypyrazine-2-carboxamide]
- IC50: 0.5 nM

SMILES: NC1=N[C@@]2(c3cc(NC(=O)c4ccc(Cl)cn4)ccc3F)CO[C@@H](CF)C[C@H]2CS1 [Example 45, N-[3-((4aR,6R,8aS)-2-amino-6-fluoromethyl-4,4a,5,6-tetrahydro-7-oxa-3-thia-1-azanaphthalen-8a-yl)-4-fluorophenyl]-5-chloropyridine-2-carboxamide]
- IC50: 2 nM

SMILES: COC[C@H]1C[C@H]2CSC(N)=N[C@@]2(c2cc(NC(=O)c3cnc(C(F)F)cn3)ccc2F)CO1 (relative stereo) [Example 12, N-[3-((4aR*,6R*,8aS*)-2-amino-6-methoxymethyl-4,4a,5,6-tetrahydro-7-oxa-3-thia-1-azanaphthalen-8a-yl)-4-fluorophenyl]-5-difluoromethylpyrazine-2-carboxamide]
- IC50: 1.1 nM

SMILES: C[C@H]1SC(N)=N[C@@]2(c3cc(NC(=O)c4cnc(C(F)F)cn4)ccc3F)COCC[C@@H]12 (relative stereo) [Example 32, N-[3-((2R*,4aR*,8aS*)-2-amino-4-methyl-4,4a,5,6-tetrahydro-7-oxa-3-thia-1-azanaphthalen-8a-yl)-4-fluorophenyl]-5-difluoromethylpyrazine-2-carboxamide]
- IC50: 3 nM

SMILES: NC1=N[C@@]2(c3cc(NC(=O)c4ccncn4)ccc3F)CO[C@@H](C(F)(F)F)C[C@H]2CS1 (relative stereo) [Example 40, N-[3-((4aR*,6R*,8aS*)-2-amino-6-trifluoromethyl-4,4a,5,6-tetrahydro-7-oxa-3-thia-1-azanaphthalen-8a-yl)-4-fluorophenyl]-pyrimidine-4-carboxamide]
- IC50: 2 nM

SMILES: C[C@H]1C[C@H]2CSC(N)=N[C@@]2(c2cc(NC(=O)c3ccc(Cl)cn3)ccc2F)CO1 (relative stereo) [Example 6, N-[3-((4aR*,6S*,8aS*)-2-amino-6-methyl-4,4a,5,6-tetrahydro-7-oxa-3-thia-1-azanaphthalen-8a-yl)-4-fluorophenyl]-5-chloropyridine-2-carboxamide]
- IC50: 1.2 nM

SMILES: NC1=N[C@@]2(c3cc(NC(=O)c4ncc(F)cc4F)ccc3F)CO[C@@H](C(F)(F)F)C[C@H]2CS1 (relative stereo) [Example 41, N-[3-((4aR*,6R*,8aS*-2-amino-6-trifluoromethyl-4,4a,5,6-tetrahydro-7-oxa-3-thia-1-azanaphthalen-8a-yl)-4-fluorophenyl]-3,5-difluoropyridine-2-carboxamide]
- IC50: 2 nM

SMILES: NC1=N[C@@]2(c3cc(NC(=O)c4ccc(Cl)cn4)ccc3F)COCC[C@H]2CS1 (single isomer, unassigned) [Example 49, N-[3-((4aR*,8aS*)-2-amino-4,4a,5,6-tetrahydro-7-oxa-3-thia-1-azanaphthalen-8a-yl)-4-fluorophenyl]-5-chloropyridine-2-carboxamide]
- IC50: 2 nM

SMILES: N#Cc1ccc(C(=O)Nc2ccc(F)c([C@]34CO[C@@H](CF)C[C@H]3CSC(N)=N4)c2)nc1 [Example 44, N-[3-((4aR,6R,8aS)-2-amino-6-fluoromethyl-4,4a,5,6-tetrahydro-7-oxa-3-thia-1-azanaphthalen-8a-yl)-4-fluorophenyl]-5-cyanopyridine-2-carboxamide]
- IC50: 0.7 nM
